Measured values from patent US20230158152A1, “PROTEOLYSIS REGULATOR AND METHOD FOR USING SAME” (MEDSHINE DISCOVERY INC., priority 2020, published 2023).

How the values were obtained:
[1] = Pharmacokinetics of the compound in mice; type: in vivo, C57BL/6 (C57) mice
From the text: In this study, C57BL male mice were selected as assay animals, and the LC/MS/MS method was used to quantitatively determine the compound concentration at different time points in the plasma of mice administered intravenously or orally with the assay compound, so as to evaluate pharmacokinetic profile of the assay compound in mice.
C57BL/6 (C57) mice (male, 17-20 g, 7-10 weeks old, from Shanghai lingchang).
A clear solution of the assay compound was intravenously injected into C57 mice via tail (fasted overnight) or administered to C57 mice by gavage (fasted overnight). 200 μL of blood was collected from the saphenous vein at 0.0833, 0.25, 0.5, 1, 2, 4, 8 and 24 h after intravenous administration, and placed in an anticoagulant tube (Jiangsu Kangjian Medical Co., Ltd.) supplemented with EDTA-K2. The mixture was thoroughly vortexed at 4° C. and centrifuged at 3200 g for 10 min. Blood was collected from the saphenous vein at 0.25, 0.5, 1, 2, 4, 6, 8 and 24 h after oral gavage administration, and placed in an anticoagulant tube (Jiangsu Kangjian Medical Co., Ltd.) supplemented with EDTA-K2. The mixture was thoroughly vortexed and centrifuged at 3200 g for 10 min. Blood drug concentration was determined by LC-MS/MS, and relevant pharmacokinetic parameters were calculated with the non-compartmental model Linear/log trapezoidal method using Phoenix WinNonlin 6.3 pharmacokinetic software.

[2] = target: T1, Recombinant human-derived ALK (Homo sapiens, UniProt Q9UM73); experiment: Inhibitory activity of compounds against ALK kinase (time-resolved fluorescence resonance energy transfer); type: biochemical; details: 30 μM ATP, 50 nM ULight-poly GT peptide
T1 construct: BAG10812.1; 1058-1620 (terminal) amino acids; GST (N); made in house
Procedure: The inhibitory activity of the compounds on ALK kinase was detected by time-resolved fluorescence resonance energy transfer method, that is, the ratio of fluorescence signals at 665 nm/615 nm was used to represent the activity of the enzyme.
Assay buffer solution: 50 mM 2-[4-(2-hydroxyethyl)-1-piperazinyl]ethanesulfonic acid buffer solution (HEPES) (pH 7.5), 10 mM MgCl2, 1 mM EDTA 0.01%, polyoxyethylene lauryl ether (Brij 35), 2 mM dithiothreitol (DTT).
Enzyme: Recombinant human-derived ALK (gene accession number: BAG10812.1; 1058-1620 (terminal) amino acids) was expressed with a N-terminal GST fusion protein (90 kDa) using a baculovirus expression system.
Enzyme substrate: 50 nM ULight-poly GT polypeptide.
Detection: europium-labeled anti-phosphotyrosine (PT66) antibody.
1. Compounds dissolved in 100% DMSO were added to 384-well plates by acoustic technique; 2. Recombinant human-derived ALK enzyme and enzyme substrate (50 nM ULight-poly GT peptide) or zymolyte (30 μM ATP) were dissolved in freshly prepared assay buffer; 3. The above ALK enzyme and enzyme substrate in the buffer solution were transferred to reaction wells; 4. Then, the zymolyte in the buffer solution was added to the above reaction wells to initiate the reaction; 5. The plate was incubated at room temperature for 1 hour; 6. The detection mixture (PT66 antibody and EDTA) was added to terminate the reaction, and the mixture was incubated at room temperature for 60 minutes; 7. Then, the plate was read using a microplate reader to obtain the ratio of fluorescence signals at 665 nm/615 nm.
Data analysis: Emission ratio (665 nm/615 nm) in the original data was involved in the calculation of the inhibition rate. The concentration and inhibition rate were analyzed using XLfit software 205 mode (4 Parameters Logistic Model) to obtain IC50 value and curve.

[3] = tested on: human lung cancer NCI-H2228 cells subcutaneous xenograft tumor; experiment: In vivo pharmacodynamic study in subcutaneous xenograft tumor NOD SCID mouse model of human lung cancer NCI-H2228 cells; parameters: species or system NOD SCID mice; details: 50 mg/kg subcutaneous injection once a day
Procedure: Human lung cancer cell NCI-H2228 (ATCC® CRL-5935™) was cultured in vitro in an adherent monolayer in RPMI 1640 medium supplemented with 10% fetal bovine serum, 100 U/mL penicillin and 100 μg/mL streptomycin in an incubator at 37° C. and 5% CO2. Cells were passaged by routine digestion with trypsin-EDTA twice a week. When the cell saturation was 80%-90% and the number met the requirement, the cells are collected, counted, and inoculated.
NOD SCID mice, female, 6-8 weeks old, weighing 18-22 grams.
0.2 mL (10×10^6 cells) of NCI-H2228 cells (with matrigel, v/v 1:1) were subcutaneously inoculated into the right back of each mouse. The administration by group was started when the average tumor volume reached 171 mm^3. One administration cycle comprised seven days, with administration once a day. The assay compounds were administered by subcutaneous injection for a total of four cycles. The subcutaneous injection doses of the assay compounds WX001 and WX002 were both 50 mg/kg. Tumor diameter was measured twice a week with a vernier caliper, and tumor volume was measured in cubic millimeters and calculated by the following formula: V=0.5a×b^2, where a and b are the long and short diameters of the tumor, respectively. The tumor-inhibitory efficacy of the assay compounds was evaluated by using TGI (%). TGI (%) reflects a tumor growth inhibition rate. TGI (%)=[1−(Average tumor volume at the end of administration of a treatment group−Average tumor volume at the beginning of administration of the treatment group)/(Average tumor volume at the end of treatment of a vehicle control group−Average tumor volume at the beginning of treatment of the vehicle control group)]×100%.

[4] = male, C57BL/6, mouse, plasma, intravenous injection (2 mg/kg)

T1 sequence (Q9UM73 1058-1620): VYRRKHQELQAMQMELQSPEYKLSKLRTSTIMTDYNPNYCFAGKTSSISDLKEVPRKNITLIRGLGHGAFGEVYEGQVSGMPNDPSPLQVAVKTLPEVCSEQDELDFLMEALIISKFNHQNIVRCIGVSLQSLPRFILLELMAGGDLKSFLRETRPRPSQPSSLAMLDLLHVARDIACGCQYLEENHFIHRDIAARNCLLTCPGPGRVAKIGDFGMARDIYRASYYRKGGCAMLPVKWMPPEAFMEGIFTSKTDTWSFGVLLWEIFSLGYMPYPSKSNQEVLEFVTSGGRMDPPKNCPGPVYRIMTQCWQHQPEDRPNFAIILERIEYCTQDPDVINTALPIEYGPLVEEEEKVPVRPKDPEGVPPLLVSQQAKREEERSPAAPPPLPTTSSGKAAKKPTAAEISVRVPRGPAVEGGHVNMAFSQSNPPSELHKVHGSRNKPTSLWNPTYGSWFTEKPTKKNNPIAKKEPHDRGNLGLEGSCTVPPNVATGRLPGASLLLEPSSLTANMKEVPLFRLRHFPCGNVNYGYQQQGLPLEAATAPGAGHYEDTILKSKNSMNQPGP

Area under the curve (0-inf) ([1]; intravenous injection (2 mg/kg)): 3.69 µM·h | clearance [1, 4]: 10.3 mL/min/kg | half-life [1, 4]: 1.74 h | bioavailability ([1]; male, C57BL/6, mouse, plasma, oral (10 mg/kg), read-out: Bioavailability F): 11.7% | Area under the curve (0-inf) ([1]; oral (10 mg/kg)): 2.33 µM·h | Peak concentration ([1]; oral (10 mg/kg)): 0.68 µM | Time to peak ([1]; oral (10 mg/kg)): 0.75 h | IC50 [2]: 21.8 nM
Compound: Cc1cc(Nc2ncc(Cl)c(Nc3ccccc3S(=O)(=O)C(C)C)n2)c(OC(C)C)cc1C1CCN(CC(=O)NCCOc2ccc3occ(C4CCC(=O)NC4=O)c3c2)CC1 (centres unmarked) [WX001]
Tumor volume (Day 1) ([3]; Day 1): 172 ± 12 mm^3 | TGI (Day 28) ([3]; Day 28): 111.22% | Tumor volume (Day 28) ([3]; Day 28): 102 ± 5 mm^3
